What all share (assay): inhibition of tumour cell growth, NCI panel, 48 h
The subject of experiment [1] is SF-539 CNS.
Experiment [2] concerns NCI-H460 lung.
Experiment [3] relates to HOP-62 NSCLC.
For experiment [4], the system named is HOP-92 NSCLC.
Experiment [5] relates to PC-3 prostate.
Experiment [6] deals with U251 CNS.
Experiment [7] deals with T-47D breast.
Experiment [8] has as its system HCC-2998 colon.
Experiment [9] has as its system ACHN renal.
In experiment [10] the test system is A498 renal.

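Exposure lasted 48 hours, with cells grown in 96-well plates and compounds tested at five concentrations. At the GI50, growth is halved. TGI: total growth inhibition.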

Regarding `O=C(Nc1ccc(Oc2ccc(Nc3nc4ccccc4s3)cc2)cc1)Nc1ccc(Cl)c(C(F)(F)F)c1`, the GI50 in [1] was 1.64 µM; in experiment [2], 1.74 µM; in [3], 1.82 µM; in experiment [4], 0.73 µM; in experiment [5], 1.07 µM; in experiment [6], 1.61 µM. Moreover, the GI50 was 1.21 µM in experiment [7], 1.87 µM in experiment [8], 1.51 µM in [9] and 1.46 µM in experiment [10]. Moreover, the TGI was 3.75 µM in experiment [1]; 4.34 µM in experiment [2]; 4.03 µM in experiment [3]; 3.28 µM in experiment [4]; 2.79 µM in experiment [5]; 3.55 µM in [6]. Further, the TGI is 3.96 µM in experiment [7], 3.91 µM in experiment [8], 5.49 µM in [9] and 3.16 µM in [10].

Turning to `CN(C)CC1CC/C(=C\c2ccc(O)cc2)C1=O` (centres undefined), the TGI in [1] was found to be 17.1 µM; in experiment [2], 37.2 µM; in experiment [3], 33.6 µM; in experiment [4], 5.82 µM; in experiment [5], 20.2 µM; in experiment [6] it was 12.5 µM. For the same compound, the TGI in experiment [7] amounted to 5.34 µM; in [8] it was 25.5 µM; in [9] it was 10.7 µM; in experiment [10], 21.3 µM.

As for `COc1cccc(C(=O)NC(c2ccc(C)cc2)c2cc(Cl)c3cccnc3c2O)c1` (centres undefined), the GI50 is 0.445 µM in experiment [1]; 0.359 µM in [2]; 0.496 µM in [3]; 0.474 µM in experiment [4]; 0.423 µM in experiment [5]; 0.333 µM in [6]. Also, the GI50 in [7] is 0.517 µM; in experiment [8], 0.786 µM; in experiment [9] it was 0.445 µM; in [10], 1.28 µM. In addition, the TGI came to 3.27 µM in experiment [1]; 4.66 µM in experiment [2]; 9.58 µM in [3]; 9.33 µM in experiment [4]; 16.2 µM in experiment [5]; 11.2 µM in [6]. Moreover, the TGI in experiment [7] came to 12.1 µM; in experiment [8] it was 15.1 µM; in experiment [9], 10.4 µM; in experiment [10], 11.6 µM.

Consider `CC(C)[C@@H]1C=C2CC[C@H]3[C@](C)(CN)CCC[C@]3(C)[C@H]2CC1`, for which the GI50 in experiment [1] is 3.44 µM; in experiment [2], 1.8 µM; in experiment [3] it was 3.33 µM; in experiment [4], 3.3 µM; in experiment [5], 5.59 µM; in [6], 1.76 µM. The GI50 was 1.99 µM in [7], 1.63 µM in [8], 5.67 µM in [9] and 2.13 µM in experiment [10]. Besides, the TGI in experiment [1] was determined as 13 µM; in experiment [2], 3.34 µM; in experiment [3], 10.9 µM; in [4] it was 17.6 µM; in experiment [5], 19.6 µM; in experiment [6], 3.28 µM. The TGI came to 4.61 µM in [7], 3.03 µM in experiment [8], 18.5 µM in experiment [9] and 15 µM in [10].

On to `CCCCCCCCCCCCC(O)c1ccc(C#CCCCCCCCCCO)o1` (centres undefined), for which the GI50 is 21.1 µM in experiment [1]; 28.3 µM in experiment [2]; 20.1 µM in experiment [3]; 19.8 µM in experiment [4]; 25.2 µM in experiment [5]; 18.5 µM in experiment [6]. Further, the results for the GI50 in [7], in [8] and in experiment [9] were 44.2 µM, 27.5 µM and 18.8 µM, respectively. In addition, the TGI in [1] was 36.8 µM; in experiment [2], 75.4 µM; in experiment [3] it was 35.5 µM; in [4] it was 37.9 µM; in [5], 59.6 µM; in experiment [6], 33.6 µM. Moreover, the TGI in experiment [7] was greater than 100 µM; in experiment [8] it was 48.2 µM; in experiment [9], 33.5 µM.

Regarding `Nc1n[nH]c2cccc(C#Cc3cccc(C(=O)Nc4ccc(CN5CCOCC5)c(C(F)(F)F)c4)c3)c12`, the GI50 in experiment [1] is 1.05 µM; in experiment [2], 3.2 µM; in experiment [3], 2.88 µM; in [4], 1.12 µM; in [5], 2.16 µM; in experiment [6], 2.75 µM. Also, the GI50 in experiment [7] was 1.18 µM; in experiment [8] it was 3 µM; in experiment [9], 2.63 µM. The TGI came out at 3.47 µM in experiment [1]; 10.3 µM in experiment [2]; 10.1 µM in experiment [3]; 4.29 µM in experiment [4]; 7.79 µM in experiment [5]; 15.2 µM in experiment [6]. In addition, the results for the TGI in experiment [7], in experiment [8] and in experiment [9] were 5.76 µM, 13.9 µM and 9.96 µM, respectively.

Regarding `COc1cc(C2CC(C)(O)Oc3cc4c(cc32)OCO4)cc(OC)c1OC` (centres undefined), the TGI in experiment [1] is 0.518 µM; in experiment [2] it was 17.6 µM; in experiment [3], greater than 100 µM; in [4] it was greater than 100 µM; in [6], 20.1 µM; in experiment [7], greater than 100 µM. Further, the TGI in experiment [8] is 34.8 µM; in [9], greater than 100 µM; in experiment [10], greater than 100 µM.

`CCOC(=O)C1=C(C)N(c2ccc(F)cc2F)[C@]2(C#N)C(O)=C(Cl)C(Cl)=C(O)[C@]12C#N`: the GI50 in [1] was greater than 100 µM; in experiment [2], greater than 100 µM; in experiment [3], greater than 100 µM; in [4] it was 1.77 µM; in experiment [6] it was greater than 100 µM; in experiment [7], greater than 100 µM. Further, the GI50 in experiment [9] and in experiment [10] was greater than 100 µM throughout. Besides, the TGI in experiment [1], in experiment [2], in [3], in experiment [4], in [6] and in experiment [7] was greater than 100 µM in each case. Also, the TGI in [9] and in experiment [10] was greater than 100 µM each time.

As to `CCn1c(-c2nonc2N)nc2c(C#CC(C)(C)O)nc(OC[C@@H](N)c3ccccc3)cc21`, the GI50 in experiment [1] was 3.73 µM; in experiment [2] it was 3.97 µM; in experiment [3], 6.09 µM; in experiment [5], 7.73 µM; in [6] it was 3.98 µM; in [7] it was 3.8 µM. The GI50 in experiment [8] is 4.31 µM; in experiment [9], 4.17 µM; in experiment [10], 2.2 µM. Moreover, the TGI in experiment [1] amounted to 7.71 µM; in experiment [2] it was 8.12 µM; in experiment [3], 10.2 µM; in experiment [5] it was 25 µM; in [6] it was 7.63 µM; in experiment [7] it was 8.24 µM. Also, the TGI amounted to 8.14 µM in experiment [8], 9.42 µM in [9] and 12.4 µM in experiment [10].

Take `O=C(O)c1nc2nc(Cl)c(Cl)nc2[nH]1`: the TGI in experiment [1], in experiment [2], in experiment [3], in [4], in experiment [5] and in experiment [6] was greater than 100 µM in each case. Besides, the TGI in [7], in experiment [9] and in experiment [10] was greater than 100 µM in each case.

As to `Nc1cc(NN=C(c2ccc(O)cc2)c2ccc(O)cc2)c([N+](=O)[O-])cc1[N+](=O)[O-]`, the GI50 in experiment [1] is 1.7 µM; in experiment [2], 1.79 µM; in experiment [3], 2.13 µM; in experiment [4] it was 2.18 µM; in experiment [5], 3.31 µM; in experiment [6] it was 1.93 µM. For the same compound, the values for the GI50 in [8], in [9] and in [10] were 1.57 µM, 1.86 µM and 1.69 µM, respectively. In addition, the TGI was 3.85 µM in experiment [1]; 3.47 µM in [2]; 3.98 µM in experiment [3]; 8.2 µM in [4]; 12.4 µM in [5]; 4.15 µM in [6]. For the same compound, the results for the TGI in experiment [8], in experiment [9] and in [10] were 3.51 µM, 5.55 µM and 3.55 µM, respectively.

For `O=[N+]([O-])c1ccc(Cl)cc1N/N=C/c1ccnc2ccccc12`, the TGI in experiment [1] was 49.5 µM; in experiment [2], greater than 100 µM; in [3] it was greater than 100 µM; in experiment [5], greater than 100 µM; in experiment [6] it was greater than 100 µM; in experiment [7], greater than 100 µM. Moreover, the TGI in [8] and in experiment [9] was greater than 100 µM in each case.

As to `NC(=O)C(=Cn1c(=S)[nH]c2ccc([N+](=O)[O-])cc21)C(N)=O`, the TGI in experiment [1], in experiment [2], in experiment [3], in [4], in [6] and in [7] was greater than 100 µM in each case. For the same compound, the TGI in experiment [8], in experiment [9] and in [10] was greater than 100 µM each time.

Regarding `Cc1ccc(-n2c3nc(=O)[nH]c(=O)c-3cc3cc([N+](=O)[O-])ccc32)cc1`, the GI50 in experiment [1] is 13.9 µM; in [2], 17.1 µM; in experiment [3] it was 2.57 µM; in experiment [5], 12.2 µM; in [6] it was 5.14 µM; in [7], 14.3 µM. Also, the GI50 in [8] is 14.6 µM; in experiment [9], 38.1 µM; in experiment [10], 20.5 µM. Besides, the TGI in [1] is 40.8 µM; in experiment [2], greater than 100 µM; in experiment [3], 11.8 µM; in experiment [5] it was 36.6 µM; in experiment [6], greater than 100 µM; in experiment [7], 36 µM. Further, the TGI in experiment [8] is 28.6 µM; in experiment [9] it was greater than 100 µM; in [10], 45.2 µM.

As for `Nc1c(C(=O)Nc2cccc(C(F)(F)F)c2)sc2nc3c(cc12)CCCCC3`, the GI50 in experiment [1] is 1.94 µM; in experiment [2] it was 2.61 µM; in experiment [4], 1.82 µM; in experiment [5] it was 3.21 µM; in [6] it was 2.2 µM; in [7], 1.55 µM. Moreover, the values for the GI50 in experiment [8], in experiment [9] and in [10] were 31 µM, 1.56 µM and 1.53 µM, respectively. The TGI in experiment [1] was 4.48 µM; in experiment [2] it was 11.4 µM; in experiment [4] it was 6.23 µM; in [5], 34.2 µM; in experiment [6], 7.98 µM; in experiment [7] it was 8.31 µM. For the same compound, the figures for the TGI in [8], in experiment [9] and in experiment [10] were greater than 100 µM, 3.73 µM and 7.08 µM, respectively.

For the compound `CC1SC(c2ccc(F)cc2)N(NC(=O)C(O)c2ccccc2)C1=O` (centres undefined), the GI50 in experiment [1], in experiment [2], in [3], in experiment [4], in [5] and in experiment [6] was greater than 100 µM throughout. The GI50 in [8], in experiment [9] and in experiment [10] was greater than 100 µM in each case. Also, the TGI in experiment [1], in experiment [2], in experiment [3], in [4], in [5] and in experiment [6] was greater than 100 µM in each case. Further, the TGI in experiment [8], in experiment [9] and in [10] was greater than 100 µM throughout.

Turning to `O=C(O)c1ccc2c(c1C(=O)O)C(=O)OC2(c1ccc(O)cc1)c1ccc(O)cc1`, the TGI in experiment [1], in experiment [2], in experiment [3], in [4], in [5] and in experiment [6] was greater than 100 µM throughout. The TGI in [7], in [9] and in experiment [10] was greater than 100 µM each time.

In the case of `N#Cc1c[nH]n2c(N=Nc3ccc(Cl)cc3)c(O)nc12`, the GI50 is 26.9 µM in experiment [1]; 29.1 µM in [2]; 62.7 µM in [3]; 13.1 µM in experiment [4]; 23.1 µM in [5]; 35.6 µM in experiment [6]. Moreover, the figures for the GI50 in experiment [7], in experiment [9] and in [10] were 10.1 µM, 24.7 µM and 44.2 µM, respectively. For the same compound, the TGI in experiment [1] is 54.1 µM; in [2], greater than 100 µM; in [3], greater than 100 µM; in experiment [4] it was 52.2 µM; in experiment [5] it was greater than 100 µM; in experiment [6], greater than 100 µM. Besides, the TGI was determined as 56 µM in experiment [7], 62 µM in experiment [9] and 96.3 µM in experiment [10].

The values above are taken from PubChem BioAssay (NCI).
